Measured values taken from US9522128B2 (FUNDACION PARA LA INVESTIGACION BIOMEDICA DEL HOSPITAL …, priority 2008, dated 2016).
Like-named read-outs stand apart in the source and are kept apart here.

Experiments:
[1] = cited from earlier work; for nature (neutral, anionic, apolar) at physiological pH: 7 or close to 7
rabbits = conditions: rabbit, in vivo; cited from earlier work
[2] = test system: CD3+ lymphocytes (human T cells)
Description: The sample was centrifuged at 120 g and was resuspended in 750 μL of RPMI medium (in the absence of FCS: fetal calf serum) to quantify the number of cells available using trypan blue. One hundred thousand cells per point were distributed.
Incubation was performed for 4 hours at 37° C. Cells were centrifuged for 6 minutes at 1200 rpm. The precipitate was resuspended in 100 μL of buffer (10 mmol/L HEPES, 150 mmol/L NaCl, 5 mmol/L KCl, 1 mmol/L Mg Cl2, 1.8 mmol/L CaCl2) and 5 μL of annexin-V. It was incubated in the dark for 10 minutes.
Intensity of green fluorescence of cells was quantified as displacement in the logarithmic scale from control (cells growing in 10% FCS) versus the number of cells analyzed. Cell debris was excluded from the analysis.

[3] = test system: cultures of cells of the proximal tubular epithelium; assay: Scanning electron microscopy of cell morphology; conditions: 11 days; cyclosporin A 1 μg/mL without or with cilastatin 200 μg/mL
[4] = test system: primary cultures of proximal tubular cells (PTCs); assay: Cell growth dynamics in primary culture of proximal tubular cells
[5] = test system: cells of pig proximal tubular epithelium in primary culture
[6] = test system: primary cultures of proximal tubular cells; conditions: 48 h, 11 nephrotoxics
humans = conditions: period immediately subsequent to transplant; cited from earlier work
DHP-I = DHP-I (Homo sapiens, UniProt P16444); conditions: Koller 1985, Campbell 1988; cited from earlier work
[7] = test system: primary cultures of proximal tubular cells; assay: Mitochondrial activity using MTT reduction; format: cell-based, pig; conditions: presence of cilastatin with nephrotoxics
Description: Mitochondrial functionality of PTCs was measured by metabolic reduction of 3-(4,5-dimethylthiazole-2-yl)-2,5-diphenyltetrazole bromide (MTT, supplied by Calbiochem), performed by the mitochondrial enzyme succinate dehydrogenase, yielding a blue-colored compound (formazan). […] MTT was subsequently added to each well at a final concentration of 0.5 mg/mL and incubated for 3 hours at 37° C. in the dark. Once this incubation was completed, 100 μL of lysis buffer (20% SDS in 50% N,N-dimethylformamide, pH 4.7) were added, and the plate was incubated overnight at 37° C. in the dark. Absorbance was measured at 595 nm on the following day.
Percent viability was calculated as follows:
Real time MTT reduction was measured in semiconfluent proximal cells seeded in 24-well plates (16 mm in diameter) in which culture medium was replaced by MTT at 0.5 mg/mL of final concentration in PBS. This reduction was determined by measuring absorbance at 595 nm with an Olympus IX70 inverted fluorescence microscope coupled to a photomultiplier controlled from a SLM Aminco 2000 fluorimeter. […] In this test, as in the previous ones, vancomycin was directly added to the plate during measurement of absorbance. […]

[8] = test system: primary cultures of proximal tubular cells; conditions: 24 hours, with cilastatin; vancomycin, cyclosporin, tacrolimus, acetaminophen, cisplatin, gentamicin
Description: Cells were subsequently detached, and the final volume obtained was recorded. Cell lysate was subjected to a thermal shock, for which it was first heated at 100° C. for 5 min and then placed on ice. Each sample was subjected to sudden decompression. Samples were centrifuged at 12000 rpm for 5 min, and supernatant was collected.
For this purpose, PTCs were incubated with the different nephrotoxics under study, and the cumulative intracellular concentration of toxics in PTCs was quantified, in accordance with the procedure described at the start of the Examples.

[9] = test system: primary cultures of proximal tubular cells; conditions: co-incubation with cilastatin; 24 hours aggression (12 hours for cisplatin), long-term survival 7 days
tubular endothelium = conditions: dose of 1 g/kg/day; Sack 1985; cited from earlier work
Wistar rats [10] = assay: Preliminary in vivo study of cilastatin nephroprotection against acute toxic renal failure caused by cisplatin; parameters: species or system rat; conditions: cisplatin 5 mg/kg plus cilastatin 75 or 150 mg/kg every 12 hours intraperitoneal
Description: Five animals, each subjected to a different treatment regimen, were preliminarily used.
At the time of killing, animals were weighed and anesthetized with ketamine (10 mg/kg) and diazepam (4 mg/kg). Once anesthetized, blood was drawn by cannulation of the abdominal aorta at the bifurcation level. This blood was kept for 30 minutes at 37° C. and subsequently for 1 hour at 4° C., after which it was centrifuged at 2000 rpm for 15 minutes at 4° C. This allowed for separation of blood serum, which was stored at −80° C. until use.

[11] = test system: primary cultures of proximal tubular cells; conditions: cilastatin added to cultures with nephrotoxics, 24 hours
Description: Cells shed to the supernatant were collected by direct aspiration using an automatic pipet, and adherent cells were separated from the culture plate by trypsinization.
The PTCs thus obtained were separately fixed and permeabilized with 70% ethanol and stored at −20° C. After removing ethanol, cells were washed two times with PBS.
The count was performed in a FACScan cytometer (Beckton Dickinson) equipped with a simple argon ion laser. Windows were fixed based on the characteristics of FSC (size), SSC (complexity), FL2-H (height), FL2-A (area), and FL2-W (width). The latter two were used to rule out cell doublets. Analysis was performed using WinMDI 2.9 software.

[12] = Description: No data have been reported for humans. […] The resulting plot is shown in FIG. 14 (diamonds: rabbit data; triangles: rat data; blank squares: data from pig experiments; filled squares including a white point: data from the summary of product characteristics for humans).
[13] = test system: renal degradation of imipenem; conditions: with cilastatin; cited from earlier work
Wistar rats [14] = assay: Extended in vivo study of cilastatin nephroprotection against acute toxic renal failure caused by cisplatin
Description: A total of 28 animals were used, which were randomized into 4 groups with a sample size n=6-8 animals per group.
Throughout the period, animals were given free access to both water and feed (standard diet) in a controlled light, temperature, and humidity environment. One day before killing, animals were introduced into metabolic cages with free access to feed and water ad libitum to collect 24-hour urine, in order to quantify urine output and protein concentration.
At the time of killing, animals (previously weighed) were anesthetized in the experimental operating room with ketamine (10 mg/kg) and diazepam (4 mg/kg) and were drawn blood by cannulation of the abdominal aorta at the bifurcation level. Blood was first incubated for 30 minutes at 37° C., and then for one hour at 4° C. Subsequent centrifugation at 2000 rpm for 15 minutes at 4° C. allowed for obtaining blood serum, which was frozen at −80° C. until use. […] Kidneys were subsequently removed, decapsulated, and kept in cold saline during their handling to minimize tissue degradation. Kidneys (right and left) were weighed and were subsequently handled similarly. […] The rest of the right kidneys, as well as left kidneys, were separated into cortex and medulla, and both samples were frozen in liquid nitrogen and stored at −80° C. until use.
Hemodynamic variables and serum and urine kidney function parameters (FIG. 14) were measured using a Dimension RxL autoanalyzer from Dade-Behring according to manufacturer instructions.
This time, urine samples were taken before killing, as indicated in the section describing the procedure.

Chain of DHP-I (P16444 17-385): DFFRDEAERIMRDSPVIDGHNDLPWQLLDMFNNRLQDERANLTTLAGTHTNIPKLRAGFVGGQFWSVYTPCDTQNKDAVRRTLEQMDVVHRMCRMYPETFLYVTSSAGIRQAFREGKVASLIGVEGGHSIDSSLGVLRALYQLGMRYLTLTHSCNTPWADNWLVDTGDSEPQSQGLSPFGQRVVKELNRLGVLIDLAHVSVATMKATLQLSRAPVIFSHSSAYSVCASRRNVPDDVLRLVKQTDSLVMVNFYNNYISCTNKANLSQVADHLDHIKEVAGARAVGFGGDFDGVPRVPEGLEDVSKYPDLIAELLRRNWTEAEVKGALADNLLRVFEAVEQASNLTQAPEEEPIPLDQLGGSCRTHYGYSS

Compound: C[C@@H]1[C@H](O)[C@@H](C)/C=C/C=C/C=C/C=C/C=C/C=C/C=C/[C@H](O[C@@H]2O[C@H](C)[C@@H](O)[C@H](N)[C@@H]2O)C[C@@H]2O[C@](O)(C[C@@H](O)C[C@@H](O)[C@H](O)CC[C@@H](O)C[C@@H](O)CC(=O)O[C@H]1C)C[C@H](O)[C@H]2C(=O)O [Amphotericin B]
- SOLUBILITY IN ORGANIC MEDIA ([1]; DMF + HCl): DMF + HCl (60-80 mg/mL)
- SOLUBILITY IN ORGANIC MEDIA ([1]; DMF): soluble in DMF (2-4 mg/mL),
- SOLUBILITY IN ORGANIC MEDIA ([1]; DMSO): DMSO (30-40 mg/mL)
- nature (neutral, anionic, apolar) at physiological pH [1]: anionic
- SOLUBILITY IN WATER ([1]; water at pH 2 or pH 11): 11 (0.1 mg/mL)

Compound: O=C(O)P(=O)(O)O [Foscarnet, phosphonoformic acid]
- SOLUBILITY IN ORGANIC MEDIA ([1]; in words): insoluble
- SOLUBILITY IN WATER ([1]; in words): soluble in water
- nature (neutral, anionic, apolar) at physiological pH [1]: anionic

Compound: Gentamicin
- nature (neutral, anionic, apolar) at physiological pH [1]: neutral

Compound: OC[C@@H](O)[C@@H](O)[C@H](O)[C@H](O)CO [Mannitol]
- SOLUBILITY IN WATER [1]: (1 g/5.5 mL)
- SOLUBILITY IN WATER ([1]; in words): soluble in water
- nature (neutral, anionic, apolar) at physiological pH [1]: anionic

Compound: C[C@H](O)C(=O)Nc1c(I)c(C(=O)NC(CO)CO)c(I)c(C(=O)NC(CO)CO)c1I [Iopamidol]
- SOLUBILITY IN ORGANIC MEDIA ([1]; in words): soluble in methanol insoluble
- SOLUBILITY IN WATER ([1]; in words): soluble in water
- nature (neutral, anionic, apolar) at physiological pH [1]: anionic

Compound: C[C@@H](O)[C@H]1C(=O)N2C(C(=O)O)=C(SCCN=CN)C[C@H]12 [imipenem]
- tubular toxicity (rabbits): may cause tubular toxicity

Compound: Cyclosporin A
- percent cell death of human T cells ([2]; cyclosporin A at different doses): dose-response effect of the lethal effect
- cell morphology by scanning electron microscopy [3]: causes cytosolic condensation, cell rupture, and monolayer disruption

Compound: ClC(Cl)Cl [Chloroform, CHCl3]
- nature (neutral, anionic, apolar) at physiological pH [1]: apolar

Compound: C=CC[C@@H]1/C=C(\C)C[C@H](C)C[C@H](OC)[C@H]2O[C@@](O)(C(=O)C(=O)N3CCCC[C@H]3C(=O)O[C@H](/C(C)=C/[C@@H]3CC[C@@H](O)[C@H](OC)C3)[C@H](C)[C@@H](O)CC1=O)[C@H](C)C[C@@H]2OC.O [Tacrolimus]
- cell growth in the presence of the nephrotoxic ([4]; from the time of seeding, cyclosporin A 1 or 10 μg/mL, tacrolimus 50 ng/mL): dose-dependently reduced
- day of culture from which cell growth is significantly decreased compared to control ([4]; post hoc analysis, cyclosporin 1 μg/mL and 10 μg/mL, tacrolimus (FK-506)): ≥ 7 days
- SOLUBILITY IN ORGANIC MEDIA ([1]; in words): high
- SOLUBILITY IN WATER ([1]; in words): insoluble
- nature (neutral, anionic, apolar) at physiological pH [1]: apolar

Compound: CC(=O)Nc1ccc(O)cc1 [Acetaminophen, N-(4-hydroxyphenyl)ethanamide]
- SOLUBILITY IN WATER ([1]; in words): moderately soluble in
- SOLUBILITY IN ORGANIC MEDIA ([1]; in words, in ethanol and acetone): soluble in ethanol and acetone
- SOLUBILITY IN ORGANIC MEDIA ([1]; in words, in serum): insoluble in serum
- nature (neutral, anionic, apolar) at physiological pH [1]: neutral

Compound: CCCCC[C@@H](O)[C@H]1C(=O)O[C@H](C)[C@@H](O)/C=C/C=C/C=C/C=C/C=C(\C)[C@@H](O)C[C@H](O)C[C@H](O)C[C@H](O)C[C@H](O)C[C@H](O)C[C@@H]1O [filipin]
- cell death [5]: causes cell death in a short time
- internalization of fluorescent toxin B labeled caveolae from cell membrane to Golgi apparatus ([5]; […], cilastatin 200 μg/mL or filipin 50 μg/mL, pre-incubated 20 minutes): prevents their internalization

Compound: CC1(C)C[C@@H]1C(=O)N/C(=C\CCCCSC[C@H](N)C(=O)O)C(=O)[O-].[Na+] (relative stereo) [cilastatin, monosodium salt of [R—[R*,S*—(Z)]]-7-[(2-amino-2-carboxyethyl)thio]-2-[[(2,2-dimetylcyclopropyl)carbonyl]amino]-2-heptenoic acid]
- induction of apoptosis (nucleosomes) on co-incubation of nephrotoxics plus cilastatin [6]: induction of apoptosis ceases or is significantly reduced
- nephrotoxicity induced by CsA (humans): may effectively counteract
- effect of co-incubation with cilastatin on the effect of nephrotoxics on cell growth ([4]; cilastatin 200 μg/mL with cyclosporin A or tacrolimus): partially prevents
- effect upon growth dynamics, cell confluence, or monolayer morphology ([4]; increasing cilastatin doses for 14 days, up to almost 10 times plasma concentrations reached in vivo): No significant effect
- day of culture from which cell growth recovers with cilastatin ([4]; with cyclosporin): ≥ 11 days
- time from which cell growth recovers with cilastatin ([4]; with tacrolimus (FK-506), decrease from day 7): from the same time
- conversion of leukotriene D4 to leukotriene E4 (DHP-I): strongly inhibited
- restoration of mitochondrial electronic transfer capacity [7]: totally or partially restores
- intracellular accumulation of nephrotoxics [8]: interferes with intracellular administration of all nephrotoxics tested
- protective effect on cyclosporin A induced T cell death ([2]; cilastatin 200 μg/mL): absence of a protective effect
- cell growth / colony-forming units after nephrotoxic aggression (crystal violet) [9]: totally or partially restores cell growth
- cell morphology by scanning electron microscopy [3]: these changes do not usually occur
- sign of renal toxicity (tubular endothelium): could cause sloughing of tubular endothelium
- weight loss or changes in plasma creatinine (Wistar rats [10]): no significant weight loss or changes in plasma creatinine
- number of dead cells (sloughed to supernatant, anoikis) [11]: reduced in all cases the number of dead cells
- plasma level up to which the dose/plasma level relationship is linear ([12]; all species): around 800 mg/L
- minimum effective dose ([12]; estimated): 10 mg/kg body weight
- estimated minimum nephroprotective dose in humans ([12]; mean value for a human adult): 750 mg/day
- urinary excretion rate of imipenem [13]: up to 70 % of the initial imipenem dose administered
- increase of mean weight (Wistar rats [14]; cilastatin 75 mg/kg every 12 hours without cisplatin): approximately 14 grams
- proteinuria and urinary osmolality (Wistar rats [14]; cisplatin 5 mg/kg, cilastatin 75 mg/kg every 12 hours intraperitoneal): completely reversed the values to normal levels
- FINAL WEIGHT (Wistar rats [14]; end of the extended study (5 days), mean ± standard error): 273 ± 7

Compound: CN[C@H](CC(C)C)C(=O)NC1C(=O)N[C@@H](CC(N)=O)C(=O)N[C@H]2C(=O)N[C@H]3C(=O)N[C@H](C(=O)N[C@@H](C(=O)O)c4cc(O)cc(O)c4-c4cc3ccc4O)[C@H](O)c3ccc(c(Cl)c3)Oc3cc2cc(c3OC2O[C@@H](CO)[C@@H](O)[C@H](O)[C@@H]2O[C@@H]2C[C@](C)(N)[C@H](O)[C@@H](C)O2)Oc2ccc(cc2Cl)[C@H]1O (stereo partly shown) [Vancomycin]
- SOLUBILITY IN WATER ([1]; in words): water-soluble
- SOLUBILITY IN WATER ([1]; in words, listed as VANCOMYCIN): high

Compound: N.N.[Cl][Pt][Cl] [Cisplatin, cis-diaminodychloroplatin II]
- nature (neutral, anionic, apolar) at physiological pH [1]: neutral
